Data: patent publication US10933044B2, “Marine organism-derived extract, compound, and medical composition having niche formation suppressing activity of leukemic stem cells” (WASEDA UNIVERSITY, priority 2016, dated 2021)
Entries after “also recorded” stand apart in the source; their conditions may differ.

Key:
[1] = test system: MB-1 cells co-cultured with OP9 cells; assay: Screening for cobblestone area (CA) formation inhibitory activity in co-culture of OP9 cells and MB-1 cells; format: cell-based, human; details: OP9/MB-1 co-culture, 48 hours incubation with sample; tested at 10, 2, 0.4 and 0.08 μg/mL; microscopic observation
Experimental: In individual wells of a 96-well plate, OP9 cells (9.0×10^3) treated with 3 μg/mL mitomycin C (Sigma-Aldrich Co. LLC., USA) for 3 hours (37° C., 5% CO2) were seeded and incubated at 37° C. under 5% CO2. The culture liquid used herein was α MEM (Gibco) containing 20% inactivated FBS (MP Biomedicals, LLC., USA) and 1% penicillin-streptomycin (P/S, Gibco, Thermo Fisher Scientific Inc., USA). The following day, to the individual wells having OP9 cells seeded therein, MB-1 cells (2.5×10^3) were seeded. In the co-culture of the OP9 cells and MB-1 cells, the culture liquid used herein was α MEM containing 10% inactivated FBS (Biowest SAS, France), 1% P/S, 1% non-essential amino acids (NEAA, Invitrogen, Thermo Fisher Scientific Inc.) and 10 μM β-mercaptoethanol (Gibco). Forty-eight hours later, a Porifera sample (2 μL) dissolved in DMSO was added and diluted five times to prepare four solutions different in concentration (10 μg/mL, 2 μg/mL, 0.4 μg/mL and 0.08 μg/mL). After incubation was performed for 48 hours at 37° C. under 5% CO2, fixation was performed with 4% paraformaldehyde (Wako Pure Chemical Industries, Ltd.), nuclear-staining was performed with Hoechst 33342 (Dojindo Laboratories, Kumamoto) and observation was made with a microscope (Type IX71, Olympus Corporation Ltd., Tokyo). […]

OP9 cells = assay: CA formation when OP9 cells exposed to Stelliferin A are co-cultured with unexposed MB-1 cells; format: cell-based, mouse; details: OP9 cells exposed to 0.4 μg/mL Day 2 to Day 4, then unexposed MB-1 cells; compared to unexposed control
Experimental: On Day 1, OP9 cells were seeded in a culture medium in the same manner as above and incubated. On Day 2, Stelliferin A was added so as to be 0.4 μg/ml, and incubated. On Day 4, fresh MB-1 cells not exposed to Stelliferin A were seeded and co-cultured. On Day 6, whether CA was formed or not was examined. Also, for comparison, CA formation was examined in a control system where OP9 cells and MB-1 cells were co-cultured in the absence of Stelliferin A in accordance with the above schedule.

[2] = test system: TF-1 cells co-cultured with OP9 cells; assay: Niche (CA) formation suppression in co-culture of TF-1 cells and OP9 cells; format: cell-based, human; details: TF-1/OP9 co-culture; Stelliferin A at 0.4 μg/mL, two days
Experimental: In order to verify that the action of Stelliferin A to suppress niche formation by MB-1 cells is not specific to MB-1 cells, the actions of a fat-soluble fraction of S12111 and Stelliferin A against niche formation by TF-1 cells were evaluated in a co-culture system of TF-1 cells (which have leukemic stem-cell-like characteristics similarly to MB-1 cells) and OP9 cells.
The experiment was carried out basically in the same manner as employed in the evaluation with MB-1 cells mentioned above except that TF-1 cells (strain derived from human bone marrow erythroleukemia cells) were used in place of MB-1 cells. In evaluation of Stelliferin A, more specifically, evaluation of niche formation suppressive action of Stelliferin A in the co-culture system of TF-1 cells and OP9 cells, OP9 cells (8.0×10^4) treated with MMC were seeded in individual wells of a 24-well plate. After culture was performed for one day, TF-1 cells (4.0×10^4) were seeded. The culture liquid used herein was IMDM (Gibco) containing 10% inactivated FBS (Biowest SAS, France) and 1% P/S. After culture was performed for one day, medium was exchanged. After culture was performed for further one day, Stelliferin A was added in a concentration of 0.4 μg/mL. After culture was performed for two days, the presence or absence of CA formation was observed by a microscope.

[3] = test system: MB-1 cells co-cultured with OP9 cells; assay: Stereoscopic positional relationship between mCherry OP9 cells and GFP MB-1 cells by confocal microscope; format: cell-based, human; details: Stelliferin A 0.4 μg/mL, two days
Experimental: The effect of a Stelliferin compound on the stereoscopic positional relationship between OP9 cells (which serve as support cells in CA formation in the mouse mesenchymal cells) and MB-1 cells was examined by using OP9 cells and MB-1 cells to which fluorescent proteins were separately introduced.
To a 35-mm dish having a glass bottom, OP9 cells, which were treated with MMC and to which fluorescent protein mCherry was introduced, were seeded at a density of 4.0×10^5 cells. After culture was performed for one day, fluorescent protein GFP introduced MB-1 cells were seeded at a density of 2.0×10^5 cells. After culture was performed for two days, Stelliferin A was added in a concentration of 0.4 μg/mL. After culture was performed for two days, the stereoscopic positional relationship between the cells was photographed with a confocal microscope (Type IX81, Olympus Corporation), and examined.

[4] = test system: MB-1 cells co-cultured with OP9 cells; assay: CA reformation after Stelliferin A treatment of OP9/MB-1 co-culture and exchange of culture medium; format: cell-based, human; details: Stelliferin A 0.4 μg/mL Day 4 to Day 6, fresh medium without it, examined Day 8
Experimental: (§1) On Day 1, OP9 cells were seeded in a culture medium in the same manner as above and incubated. On Day 2, MB-1 cells were seeded and co-cultured with the OP9 cells. On day 4, Stelliferin A was added so as to be 0.4 μg/mL and incubated.

[5] = test system: MB-1 cells co-cultured with OP9 cells; assay: Apoptosis detection with NucView 488 Caspase-3 Assay Kit in co-culture of MB-1 cells and OP9 cells; format: cell-based, human; details: for Apoptosis induction of MB-1 cells (%): NucView 488 positive cells
Experimental: (§2) To a 12-well plate, OP9 cells treated with MMC were seeded at a density of 1.6×10^5 cells per well. After culture was performed for one day, MB-1 cells were seeded at a density of 8.0×10^4 cells per well. After culture was performed for two days, Stelliferin A was added in a concentration of 0.4 μg/mL. After culture was performed for one day, imatinib was added in a concentration of 0.2 μM or 1.0 μM. After culture was performed for one day, apoptosis was detected in the manner described below.
Apoptosis was detected by use of NucView 488 Caspase-3 Assay Kit for Live Cells (Biotium, USA) or a fluorescent reagent JC-1 (Cayman Chemical, USA) which detects mitochondrial membrane potential difference.
In evaluation by NucView 488, 0.05% trypsin-EDTA was added to individual wells. After incubation for 4 minutes, the culture liquid was added. Aliquots were separately taken and then centrifuged (1,200 rpm, 4 minutes) to collect cells. Each of the suspensions of the cells collected was controlled so as to obtain a density of 1.0×10^6 cells per mL. Aliquots (200 μL) were separately taken from the suspensions. To the cells thus taken, 5 μL of NucView 488 substrate stock solution of NucView 488 Caspase-3 Assay Kit for Live Cells was added and incubated in the darkness at normal temperature for 20 minutes. Culture liquid (300 μL) was added and subjected to analysis by a cell sorter (Type SH-800, SONY Corporation, Tokyo). The ratio of green fluorescent positive cells per each well was calculated.

[6] = test system: MB-1 cells co-cultured with OP9 cells; assay: Apoptosis detection with JC-1 mitochondrial membrane potential reagent in co-culture of MB-1 cells and OP9 cells; format: cell-based, human
Experimental: The effect of the Stelliferin compound on CA formed by co-culture of OP9 cells (serving as support cells for the CA formation in the mouse mesenchymal cells) and MB-1 cells was examined by apoptosis detection reagent JC-1.
as §2, with “24-well” for “12-well”, “8.0×10^4” for “1.6×10^5”, “4.0×10^4” for “8.0×10^4”, “of” for “of 0.2 μM or”
Apoptosis was detected by JC-1 Mitochondrial Membrane Potential Assay Kit. To each well, 50 μL of JC-1 Reagent of JC-1 Mitochondrial Membrane Potential Assay Kit was added and incubation was carried out for 20 minutes. Thereafter, 0.05% trypsin-EDTA was added to each well and incubation was carried out for 4 minutes. After a culture liquid was added, aliquots were separately taken and then centrifuged (1,200 rpm, 4 minutes) to collect cells. The collected cells were separately suspended in 300 μL of a culture liquid and analyzed by a cell sorter (Type SH-800, SONY Corporation, Tokyo). The ratios of red fluorescent negative cells in individual wells were calculated.

MB-1 cells [7] = assay: CA reformation when free MB-1 cells from treated co-culture are co-cultured with fresh OP9 cells; format: cell-based, human; details: Stelliferin A 0.4 μg/mL Day 4 to Day 6, then co-culture in the absence of Stelliferin A, examined Day 8
Experimental: as §1

MB-1 cells [8] = assay: Apoptosis inducing action by imatinib alone in culture system of MB-1 cells alone (NucView 488); format: cell-based, human; details: imatinib 0.2 μM or 1.0 μM, one day; compared to MB-1 cells co-cultured in the absence of Stelliferin A
Experimental: Apoptosis inducing action by imatinib alone in a culture system of MB-1 cells alone was evaluated.
From a co-culture system with OP9 cells, MB-1 cells were purified by a cell sorter and seeded to 12-well plates at a density of 2.0×10^5 cells per well, and then, imatinib was added in a concentration of 0.2 μM or 1.0 μM. After culture was performed for one day, apoptosis was detected in the manner described below.
Apoptosis was detected by use of NucView 488 Caspase-3 Assay Kit for Live Cells (Biotium, USA) in the same manner as in the apoptosis detection performed in the co-culture system of MB-1 cells and OP9 cells.

Compound	CA formation inhibitory activity [1] [µg/mL]	Number of CAs formed with OP9 cells exposed to Stelliferin A (OP9 cells)	Niche formation by TF-1 cells [2]	Position of MB-1 cells relative to OP9 cell layer [3]	CA reformation after removal of Stelliferin A [4]	Apoptosis induction of MB-1 cells (%) ([5]; Stelliferin A present at 0.4 μg/mL plus imatinib 0.2 μM)	Apoptosis induction of MB-1 cells (%) ([5]; Stelliferin A present at 0.4 μg/mL plus imatinib 1.0 μM)	Apoptosis induction of MB-1 cells (%) ([5]; Stelliferin A present at 0.4 μg/mL, imatinib absent)	Ratio of MB-1 cells which induced apoptosis / NucView peak representing caspase 3 activity ([5]; presence of Stelliferin A with imatinib 0.2 μM and 1.0 μM compared to absence of Stelliferin A)	Apoptosis induction (JC-1, mitochondrial membrane potential difference disappeared) ([6]; co-presence of Stelliferin A 0.4 μg/mL and imatinib 1.0 μM)	Apoptosis induction (JC-1) when dose of imatinib was changed ([6]; in the presence of Stelliferin A, imatinib dose varied)	CA reformation of treated free MB-1 cells with fresh OP9 cells (MB-1 cells [7])	Sensitivity of MB-1 cells cultured alone to imatinib (apoptosis) (MB-1 cells [8])	Apoptosis induction of MB-1 cells (%) ([5]; imatinib 0.2 μM, Stelliferin A absent)	Apoptosis induction of MB-1 cells (%) ([5]; imatinib 1.0 μM, Stelliferin A absent)
Stelliferin B	0.08														
Stelliferin A	0.08	the number of CAs formed was low	suppressed niche formation by TF-1 cells	MB-1 cells were exposed to the upper side of the OP9 cell layer	CA was not reformed	22.39	44.63	16.03	increased depending on each of the concentrations of Stelliferin A and imatinib; also recorded: statistically significantly (Student t test, p<0.05) increased	apoptosis was induced	apoptosis was also induced in the dose-dependent manner of imatinib	CA was reformed			
Cc1ccc(NC(=O)c2ccc(CN3CCN(C)CC3)cc2)cc1Nc1nccc(-c2cccnc2)n1 [Imatinib, imatinib, reference compound]													high sensitivity	8.07	12.14
